The values below come from patent US11976076B1 (priority 2023, dated 2024).

Usually MIC stands for the lowest concentration that inhibits growth of the organism. Broadly, the melting point is the temperature, or range, at which the solid turns liquid.

The test system of data set [1] is Mycobacterium tuberculosis H37Rv (ATCC: 25177). Nature of the data set: Resazurin Microplate Assay (REMA), anti-tubercular activity against H37Rv. It is filed as cell-based. Particulars: 192 h, read-out: Anti-tubercular activity (MIC) H37Rv. (The colour change of resazurin is a common sign of viable cells or microbes.)

In brackets after ≈: the same amount, converted by molar mass.

`O=c1[nH]c(=S)[nH]c2[nH]c(=S)nc(-c3c[nH]c4ccccc34)c12` [Compound 4b, 5-(1H-Indol-3-yl)-2,7-dithioxo-2,3,7,8-tetrahydropyrimido[4,5-d]pyrimidin-4(1H)-one]: the melting point fell in the range of 188 to 190 °C. In addition, the MIC in data set [1] came out at 2 µg/mL (≈ 6.11 µM).

For `Cn1c(=O)c2c(-c3c[nH]c4ccccc34)nc(=S)[nH]c2n(C)c1=O` [Compound 4c, 5-(1H-Indol-3-yl)-1,3-dimethyl-7-thioxo-7,8-dihydropyrimido[4,5-d]pyrimidine-2,4(1H,3H)-dione], the melting point was in the range of 258 to 260 °C. The MIC in data set [1] stood at 1 µg/mL (≈ 2.95 µM).

Take `O=c1[nH]c(=O)c2c(-c3c[nH]c4ccccc34)nc(=S)[nH]c2[nH]1` [Compound 4a, 5-(1H-Indol-3-yl)-7-thioxo-7,8-dihydropyrimido[4,5-d]pyrimidine-2,4(1H,3H)-dione]: the melting point was 114 to 116 °C. In addition, in data set [1], the MIC amounted to 4 µg/mL (≈ 12.8 µM).
